Source: patent publication US20060166360A1, “Compositions, solutions, and methods used for transplantation” (The General Hospital Corporation, priority 2002, published 2006)
Entries after “also recorded” stand apart in the source; their conditions may differ.

What was measured:
steatotic hepatocytes = assay: Defatting of steatotic cultured hepatocytes with defatting media; type: cell-based, rat; settings: for effect on the defatting process (fat reduction): agent added in high insulin containing media; for effect on the defatting process (lipid removal): agent added in low insulin-containing medium
Protocol: It has previously been shown that collagen-sandwiched adult rat hepatocytes which are seeded and maintained in standard hepatocyte culture medium and then exposed to either rat or human plasma become severely steatotic within 24 hours with a concomitant reduction in liver-specific functions (Matthew et al., Biotechnol. Bioeng. 51: 100-111, 1995; Stefanovich et al., J. Surg. Res. 66: 57-63, 1996).
In the next set of experiments, we induced steatosis in hepatocytes by exposing them to high insulin levels followed by plasma for 2 days, and attempted to defat them using the following conditions: plasma supplemented with amino acids and low insulin levels; culture medium containing high insulin ([…]); culture medium containing low insulin (50 μU/mL) levels. We then measured the fraction of remaining triglycerides after 1 and 2 days of treatment. […] The triglyceride removal kinetic data in Table 2 was used to calculate a defatting rate for each defatting condition. For this purpose, the fraction of initial triglyceride remaining was plotted as a function of time on a semi-log plot, which yielded linear curves (not shown). The slopes of these lines, which correspond to the first order rate of decay or triglyceride clearance from the cells during defatting, are shown in Table 2 for each defatting condition tested. From these values, we can predict the fraction of intracellular lipid remaining after any treatment time using the simple equation: Triglyceride Fraction Remaining=100e^−[RateConstant][TreatmentTime] (equation 1)

IFN-γ mRNA = assay: RT-PCR of IFN-γ mRNA in purified liver T cells after transplantation; type: in vivo, rat; settings: 24 hours after transplantation; donor GdCl3 pretreatment
Protocol: (§1) Donor animals were divided into three groups; heat shock preconditioning (HPc) group, sham HPc (Sham) group, and gadolinium chloride (GdCl3) group. In the HPc group, rats were anesthetized and placed in a waterproof bag that was then immersed in a 43° C. water bath to elevate the core body temperature (measured via a rectal digital thermometer) to 42-42.5° C. Animals were maintained at that temperature for 10 min and then removed from the warm bath. Animals then received 10 ml/kg intraperitoneal saline injection and were allowed to recover with free access to food and water. Animals in the Sham and GdCl3 groups underwent the same procedures except that they were immersed in a 37° C. bath (sham HPc). In the GdCl3 group, Kupffer cell deactivation was achieved by two 20 mg/kg GdCl3 (Sigma, St. Louis, Mo.) intravenous injection 48 and 24 hours before donor liver harvesting. In the Sham and HPc groups, sterile nonpyrogenic saline was used as instead of GdCl3 solution. Donor livers were harvested 24 hours after HPc or sham HPc. In some experiments, rats were pretreated with 5 mg/kg i.m. Cyclosporine A (CyA; Sigma) 6 hours before donor liver harvesting.
Three hours or 24 hours after liver transplantation, transplanted liver were perfused with sterile PBS through the portal vein to wash out all remaining peripheral blood and then meshed with stainless steel mesh. […]

liver CD4+ T cells = assay: IFN-γ production by liver CD4+ T cells on anti-CD3 mAb-coated plates (ELISA); type: cell-based, rat; settings: 24 hours after transplantation; donor GdCl3 pretreatment
Protocol: as §1
Liver lymphocytes were obtained by the same method previously described. […] IFN-γ and IL-4 levels in the culture supernatants were determined by ELISA.

[1] = system: liver CD4+ and CD8+ T cells; assay: Flow cytometry of liver T cells after transplantation; type: in vivo, rat; settings: for CD3+CD4+ relative number of T cells in the liver / CD3+CD8+ relative number of T cells in the liver: mean ± SD
Protocol: as §1
Three hours or 24 hours after liver transplantation, transplanted liver were perfused with sterile PBS through the portal vein to wash out all remaining peripheral blood and then meshed with stainless steel mesh. After the coarse pieces were removed by centrifugation at 50 g for 1 min, the cell suspensions were again centrifuged, resuspended in 8 mL of 45% Percoll (Sigma), and layered on 5 mL of 67.5% Percoll. The gradients were centrifuged at 600 g at 20° C. for 20 min. Lymphocytes at the interface were harvested and washed twice with PBS. CD4^+ or CD8^+ T cells were purified by Rat T cell CD4 or CD8 column kit (R&D systems, Minneapolis, […].) from the harvested liver lymphocytes. The purity of sorted cells was more than 95%.
For 3-color analysis, liver lymphocytes were incubated with saturating amounts of phycoerythrin-conjugated anti-rat CD3α mAb (Pharmingen, San Diego, Calif.) and fluorescein isothiocyanate-conjugated anti-rat CD4 mAb (Pharmingen) for 30 min. Cells were analyzed with a FACSCalibur flow cytometer (Becton Dickinson, San Jose, Calif.). We carefully gated cells by forward and side light scattering for the liver lymphocytes. The data were analyzed using CyQuest software (Becton Dickinson).

HSP72 and HO-1 = assay: Western blot of HSP72 and HO-1 in hepatocytes, CD4+ and CD8+ T cells of donor fatty liver; type: in vivo, rat; settings: at time of harvesting; GdCl3 20 mg/kg i.v. 48 and 24 hours before harvesting
Protocol: as §1
Donor rats were sacrificed up to 240 hours after HPc. […] Protein signals were visualized by chemiluminescence (Pierce, Rockford, Ill.) and recorded on a GS282 Scanner (BioRad, Hercules, Calif.).

[2] = system: liver I/R injury in steatotic liver transplantation; assay: Serum ALT after fatty liver transplantation; type: in vivo, rat; settings: donor GdCl3 pretreatment
Protocol: as §1
Isogenic orthotopic liver transplantation was performed as described by Kamada and Calne (Kamada et al., Transplantation 28:47-50, 1979). Donor livers were harvested 3, 6, 24, 48, or 72 hours after HPc. Briefly, the bile duct was cannulated with a short intraluminal polyethylene stent. […] The infrahepatic and suprahepatic vena cava, including part of the diaphragm, were transected. […] For survival studies, the animals were returned to standard housing facilities and monitored for up to one week. […]
(§2) To assess liver injury, alanine aminotransferase (ALT) was measured in serum samples using a commercially available kit (Sigma). TNF-α, IL-10, IL-4, IL-12, and IFN-γ levels in serum and cell culture supernatant were determined by Enzyme-linked immunosorbent assay (ELISA). […]

[3] = system: IL-12p70, TNF-α and IL-10; assay: Serum cytokine levels (ELISA) after fatty liver transplantation; type: in vivo, rat; settings: donor GdCl3 pretreatment
Protocol: as §1, with “In the Sham and HPc groups, sterile nonpyrogenic saline was used as instead of GdCl3 solution. Donor livers were harvested 24 hours after HPc or sham HPc. In some experiments, rats were pretreated with 5 mg/kg i.m. Cyclosporine A (CyA; Sigma) 6 hours before donor liver harvesting.” left out
(§3) Isogenic orthotopic liver transplantation was performed as described by Kamada and Calne (Kamada et al., Transplantation 28:47-50, 1979). […] For survival studies, the animals were returned to standard housing facilities and monitored for up to one week. […]
as §2

recipient rats = assay: Survival of recipient rats after fatty liver transplantation; type: in vivo, rat; settings: up to 1 week after transplantation, vs Sham group
Protocol: as §1, with “In some experiments, rats were pretreated with 5 mg/kg i.m. Cyclosporine A (CyA; Sigma) 6 hours before donor liver harvesting.” left out
as §3

[4] = system: intrahepatic neutrophil accumulation; assay: Myeloperoxidase content of liver tissue (neutrophil accumulation) after transplantation; type: in vivo, rat
Protocol: Donor animals were divided into three groups; heat shock preconditioning (HPc) group, sham HPc (Sham) group, and gadolinium chloride (GdCl3) group. In the HPc group, rats were anesthetized and placed in a waterproof bag that was then immersed in a 43° C. water bath to elevate the core body temperature (measured via a rectal digital thermometer) to 42-42.5° C. Animals were maintained at that temperature for 10 min and then removed from the warm bath. Animals then received 10 ml/kg intraperitoneal saline injection and were allowed to recover with free access to food and water. Animals in the Sham and GdCl3 groups underwent the same procedures except that they were immersed in a 37° C. bath (sham HPc). […]
as §3
The presence of myeloperoxidase (MPO), enzyme specific for neutrophil (and some macrophages), was used as an index of intrahepatic neutrophil accumulation. […] The change in absorbance was measured by spectrophotometry at 450 nm. One unit of MPO activity was defined as the quantity of enzyme degrading 1 μM peroxide per minute at 25° C. per gram of tissue.

[5] = system: transplanted fatty livers; assay: Histology of transplanted fatty livers; type: in vivo, rat; settings: 3 hours after transplantation, compared to Sham group livers
Protocol: as §1, with “In some experiments, rats were pretreated with 5 mg/kg i.m. Cyclosporine A (CyA; Sigma) 6 hours before donor liver harvesting.” left out
as §3

Compound | effect on the defatting process (fat reduction) (steatotic hepatocytes) | effect on the defatting process (lipid removal) (steatotic hepatocytes) | expression level of IFN-γ mRNA in isolated CD3+ CD4+ cells (IFN-γ mRNA) | expression level of IFN-γ mRNA in isolated CD3+ CD8+ cells (IFN-γ mRNA) | IFN-γ production by liver CD4+ T cells (liver CD4+ T cells) | CD3+CD4+ relative number of T cells in the liver ([1]; 3 hr after transplantation) | CD3+CD8+ relative number of T cells in the liver ([1]; 3 hr after transplantation) | CD3+CD4+ relative number of T cells in the liver ([1]; 24 hr after transplantation) | CD3+CD8+ relative number of T cells in the liver ([1]; 24 hr after transplantation) | numbers of CD3+ CD8+ cells in the liver between groups ([1]; any stage following transplantation) | HSP72 and HO-1 expression in hepatocytes, CD4+ and CD8+ T cells (HSP72 and HO-1) | serum ALT levels ([2]; 3 hours after transplantation, 12 hours cold preservation) | liver injury ([2]; 24 hours after transplantation) | protection against I/R injury by phase ([2]; acute (3 hours) and subacute (24 hours) phase) | serum IL-12, TNF-α and IL-10 levels ([3]; 3 hours after transplantation) | serum TNF-α levels ([3]; 24 hours after transplantation) | recipient survival rate (recipient rats) | MPO levels of liver tissue ([4]; 3 hours after transplantation) | MPO levels of liver tissue / neutrophil accumulation ([4]; 24 hours after transplantation) | hemorrhagic injury (histology) [5]
hepatocyte growth factor | Some fat-reducing effects were seen | did not further enhance lipid removal | – | – | – | – | – | – | – | – | – | – | – | – | – | – | – | – | – | –
leptin | Some fat-reducing effects were seen | did not further enhance lipid removal | – | – | – | – | – | – | – | – | – | – | – | – | – | – | – | – | – | –
[Cl][Gd]([Cl])[Cl] [GdCl3, gadolinium chloride] | – | – | much higher than that from HPc group | remained low in all three groups | did not suppress activation of or IFN-γ production | 8.4 ± 2.7 ×10^5 | 4.2 ± 1.2 ×10^5 | 7.2 ± 2.2 ×10^5 | 5.6 ± 2.3 ×10^5 | no difference | neither HSP72 nor HO-1 was detected | significantly lower than that of Sham group | did not suppress liver injury | only protected I/R injury in the acute phase | moderated the initial increase in IL-12, TNF-α, and IL-10 significantly; also recorded: suppressed; also recorded: prevented the serum release of IL-12, TNF-α, and IL-10 | not significantly different from that of liver controls | no significant difference; also recorded: did not improve the recipient survival rate | almost similar with no significant difference | no difference between the Sham group and the GdCl3-treated group; also recorded: did not suppress liver injury or neutrophil accumulation | reduced hemorrhagic injury
